Our source for the MIC values is patent US5455222A, “1-substituted-5-thiomethylthiocyanato-1H-tetrazoles, compositions containing them and their use as antimicrobial and marine antifouling agents” (The Dow Chemical Company, priority 1994, dated 1995).

In brackets after ≈: the same amount, converted by molar mass.

In one assay the test system is Trichoderma viride (Tv). The assay is described as follows: Minimum inhibitory concentration (MIC), yeast/fungi in malt yeast agar. The assay is classed as cell-based, Trichoderma viride ATCC 8678. Conditions: 30° C., 72 hours for fungi. On the procedure: (§1) The minimum inhibitory concentration (MIC) for the compounds listed in Table I is determined for 9 bacteria, using nutrient agar, and 7 yeast and fungi, using malt yeast agar. A one percent solution of the test compound is prepared in a mixture of acetone and water.
(§2) Malt yeast agar is prepared by adding 3 g yeast extract and 45 g malt agar per liter of deionized water. The specific agar is dispensed in 30 mL aliquots into 25×200 mm test tubes, capped and autoclaved for 15 minutes at 115° C.
(§3) The test tubes containing the agar are cooled in a water bath until the temperature of the agar is 48° C. Then, an appropriate amount of the one percent solution of the test compound is added (except in the controls where no compound is added) to the respective test tubes so that the final concentrations are 500, 250, 100, 50, 25, 10, 5, 2.5, 1.0 and zero parts per million of the test compound in the agar, thus having a known concentration of test compound dispersed therein. The contents of the test tubes are then transferred to respective petri plates. After drying for 24 hours, the petri plates containing nutrient agar are inoculated with bacteria and those containing malt yeast agar are inoculated with yeast and fungi.
(§4) The inoculation with the yeast and fungi is accomplished as follows. Cultures of yeast and fungi are incubated for seven days on malt yeast agar at 30° C. These cultures are used to prepare suspensions by the following procedure. A suspension of each organism is prepared by adding 10 mL of sterile saline and 10 microliters of octylphenoxy polyethoxy ethanol to the agar slant of yeast or fungi. The sterile saline/octylphenoxy polyethoxy ethanol solution is then agitated with a sterile swab to suspend the microorganism grown on the slant. Each resulting suspension is diluted into sterile saline (1 part suspension to 9 parts sterile saline). Aliquots of these dilutions are placed in individual wells of Steer's Replicator and petri plates inoculated as previously described. The petri plates are incubated at 30° C. and read after 48 hours for yeast and 72 hours for fungi.
(§5) Table II lists the bacteria, yeast and fungi used in the MIC test described above along with their respective American Type Culture Collection (ATCC) identification numbers.
(§6) In Tables III and IV, the MIC values of the compounds described in Table I as compared to the MIC of a standard commercial preservative (with 1-(3-chloroallyl)-3,5,7-triaza-1-azoniaadamantane chloride as the active agent and referred to in Tables III and IV as "STANDARD I") are set forth for the bacteria organisms and yeast/fungi organisms which are listed in Table II.
The molecule `N#CSCSc1nnnn1-c1ccc(F)cc1` [V, 1-(4-Fluorophenyl)-5-thiomethylthiocyanato-1H-tetrazole] gave an MIC of 25 µg/mL (≈ 93.5 µM).

The test system of a further assay is Salmonella choleraesuis (Sc). The assay is described as follows: Minimum inhibitory concentration (MIC), bacteria in nutrient agar. Conditions: Salmonella enterica, nutrient agar pH 6.8, 30° C., 48 hours. It is filed as cell-based, Salmonella choleraesuis ATCC 10708. The procedure:
as §1
(§7) Nutrient agar is prepared at pH 6.8, representing a neutral medium, and at pH 8.2, representing an alkaline medium. The nutrient agars are prepared by adding 23 g of nutrient agar to one liter of deionized water. In addition, the alkaline medium is prepared by adjusting a 0.04M solution of N-[tris-(hydroxymethyl)methyl]glycine buffered deionized water with concentrated sodium hydroxide to a pH of 8.5.
as §3
(§8) The inoculation with bacteria is accomplished by using the following procedure. Twenty-four hour-cultures of each of the bacteria are prepared by incubating the respective bacteria in tubes containing nutrient broth for 24 hours at 30° C. in a shaker. Dilutions of each of the 24 hour-cultures are made so that nine separate suspensions (one for each of the nine test bacteria) are made, each containing 10^8 colony forming units (CFU) per mL of suspension of a particular bacteria. Aliquots of 0.3 mL of each of the bacterial suspensions are used to fill the individual wells of Steer's Replicator. For each microbial suspension, 0.3 mL was used to fill three wells (i.e., three wells of 0.3 mL each) so that for the nine different bacteria, 27 wells are filled. The Steer's Replicator is then used to inoculate both the neutral and alkaline pH nutrient agar petri plates.
(§9) The inoculated petri plates are incubated at 30° C. for 48 hours and then read to determine if the test compound which is incorporated into the agar prevented growth of the respective bacteria.
as §5, §6
The molecule `N#CSCSc1nnnn1-c1ccc(F)cc1` [V, 1-(4-Fluorophenyl)-5-thiomethylthiocyanato-1H-tetrazole] had an MIC of 100 µg/mL (≈ 374 µM).

The assay is the same for the next values; noted with them: Salmonella enterica, nutrient agar pH 8.2, 30° C., 48 hours.
`N#CSCSc1nnnn1-c1ccc(F)cc1` [V, 1-(4-Fluorophenyl)-5-thiomethylthiocyanato-1H-tetrazole] registered an MIC of 250 µg/mL (≈ 935 µM).

The next assay concerns Candida albicans (Ca). The assay is described as follows: Minimum inhibitory concentration (MIC), yeast/fungi in malt yeast agar. The assay is classed as cell-based, Candida albicans ATCC 10231. Conditions: 30° C., 48 hours for yeast. The procedure: as §1, §2, §3, §4, §5, §6
Molecule `N#CSCSc1nnnn1-c1ccc(F)cc1` [V, 1-(4-Fluorophenyl)-5-thiomethylthiocyanato-1H-tetrazole] displayed an MIC of 25 µg/mL (≈ 93.5 µM).

A further assay deals with Escherichia coli (Ec). The assay is described as follows: Minimum inhibitory concentration (MIC), bacteria in nutrient agar. The assay is classed as cell-based, Escherichia coli ATCC 11229. To be noted: nutrient agar pH 6.8, 30° C., 48 hours. On the procedure: as §1, §7, §3, §8, §9, §5, §6
`N#CSCSc1nnnn1-c1ccc(F)cc1` [V, 1-(4-Fluorophenyl)-5-thiomethylthiocyanato-1H-tetrazole] had an MIC of 100 µg/mL (≈ 374 µM).

Staying with this assay, now noted: nutrient agar pH 8.2, 30° C., 48 hours.
In turn, `N#CSCSc1nnnn1-c1ccc(F)cc1` [V, 1-(4-Fluorophenyl)-5-thiomethylthiocyanato-1H-tetrazole] registered an MIC of 500 µg/mL (≈ 1870 µM).

A further assay relates to Enterobacter aerogenes (Ea). The assay is described as above. Conditions: Klebsiella aerogenes; nutrient agar pH 6.8, 30° C., 48 hours. It is filed as cell-based, Enterobacter aerogenes ATCC 13048. The procedure:
as §1, §7, §3, §8, §9, §5, §6
In turn, `N#CSCSc1nnnn1-c1ccc(F)cc1` [V, 1-(4-Fluorophenyl)-5-thiomethylthiocyanato-1H-tetrazole] yielded an MIC of 250 µg/mL (≈ 935 µM).

Staying with this assay, now noted: Klebsiella aerogenes; nutrient agar pH 8.2, 30° C., 48 hours.
As to `N#CSCSc1nnnn1-c1ccc(F)cc1` [V, 1-(4-Fluorophenyl)-5-thiomethylthiocyanato-1H-tetrazole], the MIC was determined as 500 µg/mL (≈ 1870 µM).

Another assay has as its system Fusarium oxysporum (Fo). The assay is described as follows: Minimum inhibitory concentration (MIC), yeast/fungi in malt yeast agar. It is filed as cell-based, Fusarium oxysporum ATCC 48112. To be noted: 30° C., 72 hours for fungi. The procedure:
as §1, §2, §3, §4, §5, §6
`N#CSCSc1nnnn1-c1ccc(F)cc1` [V, 1-(4-Fluorophenyl)-5-thiomethylthiocyanato-1H-tetrazole] came in with a minimum inhibitory concentration (MIC) of 5 µg/mL (≈ 18.7 µM).

Another assay has as its system Aureobasidium pullulan (Ap). Described as above. To be noted: 30° C., read after 48 hours for yeast and 72 hours for fungi. It is filed as cell-based, Aureobasidium pullulan ATCC 16622. The procedure: as §1, §2, §3, §4, §5, §6
In turn, `N#CSCSc1nnnn1-c1ccc(F)cc1` [V, 1-(4-Fluorophenyl)-5-thiomethylthiocyanato-1H-tetrazole] returned an MIC of 2.5 µg/mL (≈ 9.35 µM).

The test system of a further assay is Staphylococcus aureus (Sa). The assay is described as follows: Minimum inhibitory concentration (MIC), bacteria in nutrient agar. To be noted: nutrient agar pH 6.8, 30° C., 48 hours. The assay is classed as cell-based, Staphylococcus aureus ATCC 6538. On the procedure:
as §1, §7, §3, §8, §9, §5, §6
For `N#CSCSc1nnnn1-c1ccc(F)cc1` [V, 1-(4-Fluorophenyl)-5-thiomethylthiocyanato-1H-tetrazole], inhibition of growth (MIC) required 25 µg/mL (≈ 93.5 µM).

Still in this assay, the particulars now being: nutrient agar pH 8.2, 30° C., 48 hours.
For the molecule `N#CSCSc1nnnn1-c1ccc(F)cc1` [V, 1-(4-Fluorophenyl)-5-thiomethylthiocyanato-1H-tetrazole], the MIC is 50 µg/mL (≈ 187 µM).

The subject of another assay is Proteus vulgaris (Pv). The description is as above. The assay is classed as cell-based, Proteus vulgaris ATCC 881. Conditions: nutrient agar pH 6.8, 30° C., 48 hours. The procedure:
as §1, §7, §3, §8, §9, §5, §6
`N#CSCSc1nnnn1-c1ccc(F)cc1` [V, 1-(4-Fluorophenyl)-5-thiomethylthiocyanato-1H-tetrazole] had an MIC of 50 µg/mL (≈ 187 µM).

The assay is the same for the next values; noted with them: nutrient agar pH 8.2, 30° C., 48 hours.
`N#CSCSc1nnnn1-c1ccc(F)cc1` [V, 1-(4-Fluorophenyl)-5-thiomethylthiocyanato-1H-tetrazole] yielded an MIC of 250 µg/mL (≈ 935 µM).

For another assay, the system named is Pseudomonas aeruginosa (PRD-10). Described as above. The assay is classed as cell-based, Pseudomonas aeruginosa ATCC 15442. To be noted: nutrient agar pH 6.8, 30° C., 48 hours. The procedure: as §1, §7, §3, §8, §9, §5, §6
In turn, `N#CSCSc1nnnn1-c1ccc(F)cc1` [V, 1-(4-Fluorophenyl)-5-thiomethylthiocyanato-1H-tetrazole] gave an MIC of 50 µg/mL (≈ 187 µM).

The same assay, now with this note: nutrient agar pH 8.2, 30° C., 48 hours.
Regarding `N#CSCSc1nnnn1-c1ccc(F)cc1` [V, 1-(4-Fluorophenyl)-5-thiomethylthiocyanato-1H-tetrazole], the minimum inhibitory concentration (MIC) was determined as 100 µg/mL (≈ 374 µM).

The subject of the next assay is Penicillium chrysogenum (Pc). The assay is described as follows: Minimum inhibitory concentration (MIC), yeast/fungi in malt yeast agar. The assay is classed as cell-based, Penicillium chrysogenum ATCC 9480. Conditions: 30° C., 72 hours for fungi. The procedure: as §1, §2, §3, §4, §5, §6
The molecule `N#CSCSc1nnnn1-c1ccc(F)cc1` [V, 1-(4-Fluorophenyl)-5-thiomethylthiocyanato-1H-tetrazole] came in with an MIC of 2.5 µg/mL (≈ 9.35 µM).

The next assay relates to Bacillus subtilis (Bs). The assay is described as follows: Minimum inhibitory concentration (MIC), bacteria in nutrient agar. It is filed as cell-based, Bacillus subtilis ATCC 8473. To be noted: nutrient agar pH 6.8, 30° C., 48 hours. On the procedure:
as §1, §7, §3, §8, §9, §5, §6
`N#CSCSc1nnnn1-c1ccc(F)cc1` [V, 1-(4-Fluorophenyl)-5-thiomethylthiocyanato-1H-tetrazole]: the MIC is < 10 µg/mL.

The assay is the same for the next values; noted with them: nutrient agar pH 8.2, 30° C., 48 hours.
`N#CSCSc1nnnn1-c1ccc(F)cc1` [V, 1-(4-Fluorophenyl)-5-thiomethylthiocyanato-1H-tetrazole] registered an MIC of 50 µg/mL (≈ 187 µM).

The test system of the next assay is Klebsiella pneumoniae (Kp). The assay is described as above. It is filed as cell-based, Klebsiella pneumoniae ATCC 8308. To be noted: nutrient agar pH 6.8, 30° C., 48 hours. On the procedure: as §1, §7, §3, §8, §9, §5, §6
`N#CSCSc1nnnn1-c1ccc(F)cc1` [V, 1-(4-Fluorophenyl)-5-thiomethylthiocyanato-1H-tetrazole] had an MIC of 100 µg/mL (≈ 374 µM).

The same assay, now with this note: nutrient agar pH 8.2, 30° C., 48 hours.
For the molecule `N#CSCSc1nnnn1-c1ccc(F)cc1` [V, 1-(4-Fluorophenyl)-5-thiomethylthiocyanato-1H-tetrazole], it took 250 µg/mL (≈ 935 µM) to inhibit growth (MIC).

The subject of another assay is Saccharomyces cerevisiae (Sc). The assay is described as follows: Minimum inhibitory concentration (MIC), yeast/fungi in malt yeast agar. To be noted: 30° C., 48 hours for yeast. It is filed as cell-based, Saccharomyces cerevisiae ATCC 4105. The procedure:
as §1, §2, §3, §4, §5, §6
Molecule `N#CSCSc1nnnn1-c1ccc(F)cc1` [V, 1-(4-Fluorophenyl)-5-thiomethylthiocyanato-1H-tetrazole] showed an MIC of 5 µg/mL (≈ 18.7 µM).

The test system of the next assay is Aspergillus niger (An). The assay is described as above. The assay is classed as cell-based, Aspergillus niger ATCC 16404. Conditions: 30° C., 72 hours for fungi. On the procedure: as §1, §2, §3, §4, §5, §6
Take `N#CSCSc1nnnn1-c1ccc(F)cc1` [V, 1-(4-Fluorophenyl)-5-thiomethylthiocyanato-1H-tetrazole]: the MIC is 5 µg/mL (≈ 18.7 µM).

Usually MIC stands for the lowest concentration that inhibits growth of the organism. Low readings indicate inhibition by little substance, high ones a need for much substance.
